Experimental data reported in the kinase profiling compilation of Christmann-Franck et al. (2016).
Where “and” joins values, the source holds several entries; their conditions need not be identical. Equal values may be shown once.

Key:
Experiment in all cases: radiometric filter-binding kinase assay, Kinase HotSpot
Conditions in all cases: compound 0.5 µM; ATP 10 µM
[1] = biological target: MAPK10 (human) (UniProt P53779)
[2] = biological target: TNK2 (human) (UniProt Q07912)
[3] = biological target: MUSK (human) (UniProt O15146)
[4] = biological target: CSNK1E (human) (UniProt P49674)
Sequence of CSNK1E (human) (P49674 whole entry, looked up): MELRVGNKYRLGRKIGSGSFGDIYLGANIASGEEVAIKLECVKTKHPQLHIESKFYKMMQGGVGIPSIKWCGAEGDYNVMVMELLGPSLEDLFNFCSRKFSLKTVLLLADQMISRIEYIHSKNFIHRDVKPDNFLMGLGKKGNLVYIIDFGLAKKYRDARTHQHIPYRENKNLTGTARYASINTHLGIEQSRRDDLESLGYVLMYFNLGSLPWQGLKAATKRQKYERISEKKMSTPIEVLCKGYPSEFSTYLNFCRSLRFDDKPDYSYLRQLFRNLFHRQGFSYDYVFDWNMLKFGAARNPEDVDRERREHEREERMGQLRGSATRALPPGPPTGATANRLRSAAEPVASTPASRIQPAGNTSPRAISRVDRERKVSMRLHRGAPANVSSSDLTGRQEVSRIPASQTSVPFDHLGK

[5] = biological target: DCLK2 (human) (UniProt Q8N568)
[6] = biological target: MYLK (human) (UniProt Q15746)
[7] = biological target: PRKD3 (human) (UniProt O94806)
Sequence of PRKD3 (human) (O94806 whole entry, looked up): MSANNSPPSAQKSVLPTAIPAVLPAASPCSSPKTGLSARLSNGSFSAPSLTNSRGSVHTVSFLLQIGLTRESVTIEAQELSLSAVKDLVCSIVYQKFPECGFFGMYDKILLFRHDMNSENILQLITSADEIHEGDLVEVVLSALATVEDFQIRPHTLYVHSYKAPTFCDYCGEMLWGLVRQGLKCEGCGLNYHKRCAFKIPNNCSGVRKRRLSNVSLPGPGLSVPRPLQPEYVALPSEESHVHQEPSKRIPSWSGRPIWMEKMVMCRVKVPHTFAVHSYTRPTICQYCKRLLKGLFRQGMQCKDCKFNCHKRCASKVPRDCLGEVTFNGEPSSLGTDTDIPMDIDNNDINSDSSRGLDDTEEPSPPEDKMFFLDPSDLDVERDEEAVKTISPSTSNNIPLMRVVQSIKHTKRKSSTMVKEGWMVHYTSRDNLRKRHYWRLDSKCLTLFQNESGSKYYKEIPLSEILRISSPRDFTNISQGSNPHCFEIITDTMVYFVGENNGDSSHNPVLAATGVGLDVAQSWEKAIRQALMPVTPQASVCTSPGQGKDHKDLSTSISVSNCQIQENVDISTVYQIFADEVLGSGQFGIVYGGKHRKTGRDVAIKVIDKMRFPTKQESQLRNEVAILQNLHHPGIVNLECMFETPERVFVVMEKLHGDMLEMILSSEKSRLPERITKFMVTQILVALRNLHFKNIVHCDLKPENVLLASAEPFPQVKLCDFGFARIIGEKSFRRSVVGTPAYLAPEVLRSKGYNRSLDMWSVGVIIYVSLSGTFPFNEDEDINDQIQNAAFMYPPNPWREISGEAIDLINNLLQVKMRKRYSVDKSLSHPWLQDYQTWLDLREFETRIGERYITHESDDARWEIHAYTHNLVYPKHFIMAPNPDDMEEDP

[8] = biological target: CAMK2A (human) (UniProt Q9UQM7)
Sequence of CAMK2A (human) (Q9UQM7 whole entry, looked up): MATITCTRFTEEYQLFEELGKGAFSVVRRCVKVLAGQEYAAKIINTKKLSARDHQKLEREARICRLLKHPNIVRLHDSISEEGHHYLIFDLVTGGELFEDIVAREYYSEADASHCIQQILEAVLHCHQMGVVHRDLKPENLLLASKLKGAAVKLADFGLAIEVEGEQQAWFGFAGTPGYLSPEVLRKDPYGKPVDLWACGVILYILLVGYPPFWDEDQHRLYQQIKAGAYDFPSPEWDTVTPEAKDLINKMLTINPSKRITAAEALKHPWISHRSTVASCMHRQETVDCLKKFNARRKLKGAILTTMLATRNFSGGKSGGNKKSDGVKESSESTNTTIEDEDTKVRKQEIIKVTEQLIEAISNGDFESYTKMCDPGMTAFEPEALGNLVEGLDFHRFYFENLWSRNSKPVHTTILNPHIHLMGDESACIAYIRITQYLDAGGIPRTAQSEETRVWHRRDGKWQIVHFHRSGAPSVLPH

[9] = biological target: ADRBK2 (human) (UniProt P35626)
Sequence of ADRBK2 (human) (P35626 whole entry, looked up): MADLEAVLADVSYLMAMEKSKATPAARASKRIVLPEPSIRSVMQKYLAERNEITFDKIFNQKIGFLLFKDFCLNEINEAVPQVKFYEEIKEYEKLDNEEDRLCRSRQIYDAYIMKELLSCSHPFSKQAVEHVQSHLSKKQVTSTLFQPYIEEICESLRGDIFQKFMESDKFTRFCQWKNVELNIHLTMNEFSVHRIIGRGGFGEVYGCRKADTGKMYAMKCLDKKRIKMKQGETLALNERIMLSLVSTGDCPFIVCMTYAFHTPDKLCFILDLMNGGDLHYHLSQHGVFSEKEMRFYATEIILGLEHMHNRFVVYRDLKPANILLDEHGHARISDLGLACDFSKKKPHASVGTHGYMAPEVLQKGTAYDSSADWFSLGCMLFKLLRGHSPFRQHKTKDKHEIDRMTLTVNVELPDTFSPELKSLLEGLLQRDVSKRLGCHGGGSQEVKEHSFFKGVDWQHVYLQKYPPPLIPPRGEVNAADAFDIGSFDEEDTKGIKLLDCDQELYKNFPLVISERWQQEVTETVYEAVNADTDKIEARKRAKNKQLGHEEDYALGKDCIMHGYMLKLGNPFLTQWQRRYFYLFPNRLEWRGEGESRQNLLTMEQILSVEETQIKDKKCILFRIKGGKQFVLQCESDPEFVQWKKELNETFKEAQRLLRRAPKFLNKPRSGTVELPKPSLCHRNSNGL

[10] = biological target: MAPKAPK2 (human) (UniProt P49137)
[11] = biological target: TGFBR1 (human) (UniProt P36897)
[12] = biological target: LYN (human) (UniProt P07948)
[13] = biological target: TAOK2 (human) (UniProt Q9UL54)
[14] = biological target: SYK (human) (UniProt P43405)
[15] = biological target: INSR (human) (UniProt P06213)
Sequence of INSR (human) (P06213 whole entry, looked up): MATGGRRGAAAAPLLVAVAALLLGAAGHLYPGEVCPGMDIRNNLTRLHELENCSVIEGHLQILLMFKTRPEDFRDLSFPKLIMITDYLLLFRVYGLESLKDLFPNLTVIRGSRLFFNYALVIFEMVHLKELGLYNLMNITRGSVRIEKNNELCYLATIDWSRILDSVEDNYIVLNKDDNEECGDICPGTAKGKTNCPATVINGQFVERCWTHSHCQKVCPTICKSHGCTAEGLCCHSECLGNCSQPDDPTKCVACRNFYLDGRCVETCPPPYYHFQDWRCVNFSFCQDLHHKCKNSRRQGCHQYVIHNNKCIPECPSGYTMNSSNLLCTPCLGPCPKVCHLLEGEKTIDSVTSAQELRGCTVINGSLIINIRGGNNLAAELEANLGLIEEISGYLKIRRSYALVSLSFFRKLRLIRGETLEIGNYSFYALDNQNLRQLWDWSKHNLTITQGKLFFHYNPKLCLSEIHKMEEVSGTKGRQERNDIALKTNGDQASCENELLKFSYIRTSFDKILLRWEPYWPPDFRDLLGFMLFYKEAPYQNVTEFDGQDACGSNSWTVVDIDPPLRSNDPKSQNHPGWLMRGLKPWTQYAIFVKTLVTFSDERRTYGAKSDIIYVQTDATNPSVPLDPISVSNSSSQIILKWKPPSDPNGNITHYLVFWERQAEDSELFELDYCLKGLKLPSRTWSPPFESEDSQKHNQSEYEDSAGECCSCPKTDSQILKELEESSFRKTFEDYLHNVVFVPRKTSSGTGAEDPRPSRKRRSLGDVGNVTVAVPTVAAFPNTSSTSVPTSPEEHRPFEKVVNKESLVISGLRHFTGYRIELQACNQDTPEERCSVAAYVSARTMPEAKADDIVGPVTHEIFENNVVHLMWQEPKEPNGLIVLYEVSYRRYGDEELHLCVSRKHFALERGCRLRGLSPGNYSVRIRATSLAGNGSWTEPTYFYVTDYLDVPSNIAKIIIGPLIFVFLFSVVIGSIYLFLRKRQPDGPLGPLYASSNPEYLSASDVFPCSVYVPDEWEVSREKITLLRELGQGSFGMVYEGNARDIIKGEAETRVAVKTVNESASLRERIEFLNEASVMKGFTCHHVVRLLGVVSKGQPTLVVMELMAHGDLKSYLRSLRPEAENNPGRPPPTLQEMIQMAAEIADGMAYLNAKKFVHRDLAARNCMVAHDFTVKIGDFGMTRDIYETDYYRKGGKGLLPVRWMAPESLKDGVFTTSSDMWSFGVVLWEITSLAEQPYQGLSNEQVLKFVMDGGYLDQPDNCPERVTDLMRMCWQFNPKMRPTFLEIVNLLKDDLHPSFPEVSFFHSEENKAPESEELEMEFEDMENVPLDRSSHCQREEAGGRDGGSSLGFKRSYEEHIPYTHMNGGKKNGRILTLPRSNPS

[16] = biological target: AKT3 (human) (UniProt Q9Y243)
[17] = biological target: GSG2 (human) (UniProt Q8TF76)
[18] = biological target: CAMK1 (human) (UniProt Q14012)
[19] = biological target: PAK3 (human) (UniProt O75914)
[20] = biological target: PRKX (human) (UniProt P51817)
[21] = biological target: EPHA1 (human) (UniProt P21709)
[22] = biological target: PBK (human) (UniProt Q96KB5)
[23] = biological target: MAP3K7 TAB1 (human) (UniProt O43318+Q15750)
[24] = biological target: MAP4K2 (human) (UniProt Q12851)
[25] = system: SGK1 (human), O00141 [S422D]
[26] = biological target: LTK (human) (UniProt P29376)
[27] = biological target: NEK4 (human) (UniProt P51957)
[28] = biological target: RET (human) (UniProt P07949)
[29] = biological target: SRC (human) (UniProt P12931)
[30] = biological target: STK24 (human) (UniProt Q9Y6E0)
[31] = biological target: TGFBR2 (human) (UniProt P37173)
[32] = biological target: MAP3K3 (human) (UniProt Q99759)
[33] = biological target: STK33 (human) (UniProt Q9BYT3)
[34] = biological target: DSTYK (human) (UniProt Q6XUX3)
[35] = biological target: MELK (human) (UniProt Q14680)
[36] = biological target: PAK4 (human) (UniProt O96013)
Sequence of PAK4 (human) (O96013 whole entry, looked up): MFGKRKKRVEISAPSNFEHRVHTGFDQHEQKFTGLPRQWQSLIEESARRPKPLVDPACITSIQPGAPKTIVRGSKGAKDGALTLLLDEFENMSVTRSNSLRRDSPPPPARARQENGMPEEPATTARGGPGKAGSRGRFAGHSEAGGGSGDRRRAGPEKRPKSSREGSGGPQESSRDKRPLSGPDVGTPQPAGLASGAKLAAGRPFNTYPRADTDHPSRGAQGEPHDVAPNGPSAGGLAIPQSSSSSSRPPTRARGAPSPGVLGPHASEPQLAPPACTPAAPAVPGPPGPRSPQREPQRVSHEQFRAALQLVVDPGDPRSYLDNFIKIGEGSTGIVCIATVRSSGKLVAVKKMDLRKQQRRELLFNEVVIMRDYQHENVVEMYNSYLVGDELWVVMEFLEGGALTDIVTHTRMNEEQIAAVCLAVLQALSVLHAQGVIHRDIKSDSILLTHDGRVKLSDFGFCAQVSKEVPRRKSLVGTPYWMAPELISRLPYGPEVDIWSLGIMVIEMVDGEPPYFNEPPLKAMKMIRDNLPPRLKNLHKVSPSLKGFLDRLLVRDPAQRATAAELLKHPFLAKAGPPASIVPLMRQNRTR

[37] = biological target: IRAK4 (human) (UniProt Q9NWZ3)
[38] = biological target: PAK1 (human) (UniProt Q13153)
Sequence of PAK1 (human) (Q13153 whole entry, looked up): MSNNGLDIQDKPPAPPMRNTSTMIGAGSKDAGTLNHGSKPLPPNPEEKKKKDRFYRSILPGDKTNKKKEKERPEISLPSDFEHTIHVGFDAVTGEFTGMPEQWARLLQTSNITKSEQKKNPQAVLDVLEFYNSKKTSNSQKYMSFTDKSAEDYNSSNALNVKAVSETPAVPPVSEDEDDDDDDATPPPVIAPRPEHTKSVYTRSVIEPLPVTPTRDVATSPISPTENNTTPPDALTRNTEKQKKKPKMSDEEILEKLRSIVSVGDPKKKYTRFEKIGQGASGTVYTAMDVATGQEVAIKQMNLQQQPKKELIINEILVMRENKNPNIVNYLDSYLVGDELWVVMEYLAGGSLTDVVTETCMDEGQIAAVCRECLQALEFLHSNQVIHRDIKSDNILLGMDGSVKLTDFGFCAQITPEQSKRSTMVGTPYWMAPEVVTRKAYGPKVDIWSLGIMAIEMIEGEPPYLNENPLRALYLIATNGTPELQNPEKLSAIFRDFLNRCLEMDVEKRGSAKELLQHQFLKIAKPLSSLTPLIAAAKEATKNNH

[39] = biological target: CDK6 CCND1 (human) (UniProt Q00534+P24385)
[40] = biological target: MAPK9 (human) (UniProt P45984)
[41] = biological target: NEK3 (human) (UniProt P51956)
[42] = biological target: CLK2 (human) (UniProt P49760)

SMILES: COc1cccc(-c2cc(=O)c3ccccc3o2)c1N
- residual activity [1]: 85.7%
- residual activity [2]: 79.9%
- residual activity [3]: 94.2%
- residual activity [4]: 97.5%
- residual activity [5]: 88.3%
- residual activity [6]: 98.9%
- residual activity [7]: 94.3%
- residual activity [8]: 93.6%
- residual activity [9]: 94.7%
- residual activity [10]: 102%
- residual activity [11]: 94.7%
- residual activity [12]: 94.6% and 98.7%
- residual activity [13]: 96%
- residual activity [14]: 97.2%
- residual activity [15]: 106%
- residual activity [16]: 101%
- residual activity [17]: 95.7%
- residual activity [18]: 98.5%
- residual activity [19]: 90.7%
- residual activity [20]: 101%
- residual activity [21]: 99.7%
- residual activity [22]: 97.6%
- residual activity [23]: 98.7%
- residual activity [24]: 81.7%
- residual activity [25]: 102%
- residual activity [26]: 75.4%
- residual activity [27]: 93.4%
- residual activity [28]: 107%
- residual activity [29]: 92.6%
- residual activity [30]: 108%
- residual activity [31]: 115%
- residual activity [32]: 83%
- residual activity [33]: 98.2%
- residual activity [34]: 97.1%
- residual activity [35]: 94%
- residual activity [36]: 88.1%
- residual activity [37]: 86.4%
- residual activity [38]: 97.5%
- residual activity [39]: 95.5%
- residual activity [40]: 89.8%
- residual activity [41]: 102%
- residual activity [42]: 103%

SMILES: O=C(O)c1ccc2c3c1cccc3c(=O)n1c3ccccc3nc21
- residual activity [1]: 108%
- residual activity [2]: 101%
- residual activity [3]: 47.1%
- residual activity [4]: 96%
- residual activity [5]: 96.7%
- residual activity [6]: 89.8%
- residual activity [7]: 82.2%
- residual activity [8]: 85.2%
- residual activity [9]: 103%
- residual activity [10]: 102%
- residual activity [11]: 99.4%
- residual activity [12]: 101% and 99.4%
- residual activity [13]: 95.2%
- residual activity [14]: 96%
- residual activity [15]: 91.5%
- residual activity [16]: 104%
- residual activity [17]: 90.9%
- residual activity [18]: 101%
- residual activity [19]: 97.6%
- residual activity [20]: 93.7%
- residual activity [21]: 95.3%
- residual activity [22]: 97.5%
- residual activity [23]: 74.4%
- residual activity [24]: 38%
- residual activity [25]: 102%
- residual activity [26]: 72.7%
- residual activity [27]: 60.4%
- residual activity [28]: 96.8%
- residual activity [29]: 96.3%
- residual activity [30]: 87.6%
- residual activity [31]: 133%
- residual activity [32]: 81%
- residual activity [33]: 78.8%
- residual activity [34]: 103%
- residual activity [35]: 97%
- residual activity [36]: 114%
- residual activity [37]: 107%
- residual activity [38]: 95.6%
- residual activity [39]: 90.6%
- residual activity [40]: 97.5%
- residual activity [41]: 91.8%
- residual activity [42]: 91%

SMILES: O=c1c2ccccc2[nH]c(=S)n1CCN1CCC(=C(c2ccc(F)cc2)c2ccc(F)cc2)CC1
- residual activity [1]: 76.2%
- residual activity [2]: 105%
- residual activity [3]: 93.6%
- residual activity [4]: 100%
- residual activity [5]: 101%
- residual activity [6]: 96.2%
- residual activity [7]: 101%
- residual activity [8]: 105%
- residual activity [9]: 102%
- residual activity [10]: 106%
- residual activity [11]: 96.2%
- residual activity [12]: 105% and 108%
- residual activity [13]: 109%
- residual activity [14]: 93.2%
- residual activity [15]: 94.3%
- residual activity [16]: 99.4%
- residual activity [17]: 95.4%
- residual activity [18]: 98.6%
- residual activity [19]: 94.6%
- residual activity [20]: 106%
- residual activity [21]: 107%
- residual activity [22]: 107%
- residual activity [23]: 103%
- residual activity [24]: 112%
- residual activity [25]: 96%
- residual activity [26]: 97.9%
- residual activity [27]: 99.1%
- residual activity [28]: 106%
- residual activity [29]: 103%
- residual activity [30]: 93.4%
- residual activity [31]: 119%
- residual activity [32]: 102%
- residual activity [33]: 106%
- residual activity [34]: 86.5%
- residual activity [35]: 104%
- residual activity [36]: 101%
- residual activity [37]: 105%
- residual activity [38]: 94.6%
- residual activity [39]: 98.7%
- residual activity [40]: 97%
- residual activity [41]: 94%
- residual activity [42]: 87.8%

SMILES: O=C1NC(=O)c2c1c1c3ccccc3[nH]c1c1[nH]c3cc(Br)ccc3c21
- residual activity [1]: 105%
- residual activity [2]: 97.4%
- residual activity [3]: 88.4%
- residual activity [4]: 82.2%
- residual activity [5]: 87.2%
- residual activity [6]: 85.3%
- residual activity [7]: 49.5%
- residual activity [8]: 78.3%
- residual activity [9]: 95.2%
- residual activity [10]: 101%
- residual activity [11]: 96.9%
- residual activity [12]: 92.1% and 93.2%
- residual activity [13]: 94.1%
- residual activity [14]: 58.3%
- residual activity [15]: 86.4%
- residual activity [16]: 91.1%
- residual activity [17]: 72.9%
- residual activity [18]: 99%
- residual activity [19]: 97.7%
- residual activity [20]: 85.1%
- residual activity [21]: 98.1%
- residual activity [22]: 86.3%
- residual activity [23]: 91.4%
- residual activity [24]: 74.1%
- residual activity [25]: 47.6%
- residual activity [26]: 89.9%
- residual activity [27]: 89%
- residual activity [28]: 80.1%
- residual activity [29]: 88.9%
- residual activity [30]: 80.1%
- residual activity [31]: 61.8%
- residual activity [32]: 105%
- residual activity [33]: 71.9%
- residual activity [34]: 65.6%
- residual activity [35]: 46.6%
- residual activity [36]: 96.4%
- residual activity [37]: 76.2%
- residual activity [38]: 87.8%
- residual activity [39]: 12.2%
- residual activity [40]: 99.6%
- residual activity [41]: 88.3%
- residual activity [42]: 84.7%
